Patent US20250084056A1, “SUBSTITUTED OXOISOINDOLINYL PIPERIDINE-2,6-DIONE COMPOUNDS” (BRISTOL-MYERS SQUIBB COMPANY, priority 2023, published 2025)

Columns and labels:
Type in all cases: cell-based
Phospho-Rb (Ser807/811) = test: Phospho-Retinoblastoma (pRB) Cellular Assay; details: Homo sapiens, OVCAR-3, NIH OVCAR3 cells, 24 hours; for IC50: concentration giving 50% response; for Emax: maximum response, reference compound at 10 μM = 100%, read-out: pRB Ymax
Procedure, shortened: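 OVCAR3 cells seeded overnight, then dosed with serial dilutions for 24 h at 37° C. Lysed with kit mix plus phosphatase inhibitor, ≥4 h at room temperature, read on EnVision; 100% response set by reference compound at 10 μM, giving IC50 and Ymax.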

GSPT1 = GSPT1 (Homo sapiens, UniProt P15170+Q96SW2); test: GSPT1 Cellular Degradation Assay (DF15-GSPT1-ePL); parameters: expressed in transfected cells; details: DF15-GSPT1-ePL cells, 20 hours
Sequence of GSPT1 (P15170 whole entry, the tested form may be a part): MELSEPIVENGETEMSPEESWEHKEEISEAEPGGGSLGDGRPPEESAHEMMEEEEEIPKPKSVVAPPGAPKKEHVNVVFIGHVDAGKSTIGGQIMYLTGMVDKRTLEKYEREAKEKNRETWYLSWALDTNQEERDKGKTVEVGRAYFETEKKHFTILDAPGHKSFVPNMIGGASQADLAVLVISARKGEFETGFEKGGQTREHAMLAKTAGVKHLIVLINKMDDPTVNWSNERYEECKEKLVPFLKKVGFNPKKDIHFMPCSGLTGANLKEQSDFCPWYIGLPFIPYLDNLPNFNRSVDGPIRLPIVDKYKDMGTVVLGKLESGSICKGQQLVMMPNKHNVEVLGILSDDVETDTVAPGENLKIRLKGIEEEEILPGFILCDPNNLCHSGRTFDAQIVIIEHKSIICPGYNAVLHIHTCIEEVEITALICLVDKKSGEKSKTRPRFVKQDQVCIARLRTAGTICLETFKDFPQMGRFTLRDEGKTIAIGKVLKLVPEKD
Sequence of GSPT1 (Q96SW2 whole entry, the tested form may be a part): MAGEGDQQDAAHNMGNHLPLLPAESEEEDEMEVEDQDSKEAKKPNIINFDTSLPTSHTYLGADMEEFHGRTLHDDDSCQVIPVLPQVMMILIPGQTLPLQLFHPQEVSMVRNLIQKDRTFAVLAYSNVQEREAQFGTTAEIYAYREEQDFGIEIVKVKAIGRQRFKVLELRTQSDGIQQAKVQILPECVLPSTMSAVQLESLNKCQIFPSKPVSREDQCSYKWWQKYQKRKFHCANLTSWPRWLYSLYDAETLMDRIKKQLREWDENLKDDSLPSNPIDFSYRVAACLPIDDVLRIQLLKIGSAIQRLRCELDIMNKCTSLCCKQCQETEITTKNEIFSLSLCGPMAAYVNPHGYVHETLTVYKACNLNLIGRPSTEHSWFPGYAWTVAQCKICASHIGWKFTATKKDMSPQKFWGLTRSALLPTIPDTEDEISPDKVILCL
Sequence of GSPT1 (Q16531 whole entry partner, the tested form may be a part): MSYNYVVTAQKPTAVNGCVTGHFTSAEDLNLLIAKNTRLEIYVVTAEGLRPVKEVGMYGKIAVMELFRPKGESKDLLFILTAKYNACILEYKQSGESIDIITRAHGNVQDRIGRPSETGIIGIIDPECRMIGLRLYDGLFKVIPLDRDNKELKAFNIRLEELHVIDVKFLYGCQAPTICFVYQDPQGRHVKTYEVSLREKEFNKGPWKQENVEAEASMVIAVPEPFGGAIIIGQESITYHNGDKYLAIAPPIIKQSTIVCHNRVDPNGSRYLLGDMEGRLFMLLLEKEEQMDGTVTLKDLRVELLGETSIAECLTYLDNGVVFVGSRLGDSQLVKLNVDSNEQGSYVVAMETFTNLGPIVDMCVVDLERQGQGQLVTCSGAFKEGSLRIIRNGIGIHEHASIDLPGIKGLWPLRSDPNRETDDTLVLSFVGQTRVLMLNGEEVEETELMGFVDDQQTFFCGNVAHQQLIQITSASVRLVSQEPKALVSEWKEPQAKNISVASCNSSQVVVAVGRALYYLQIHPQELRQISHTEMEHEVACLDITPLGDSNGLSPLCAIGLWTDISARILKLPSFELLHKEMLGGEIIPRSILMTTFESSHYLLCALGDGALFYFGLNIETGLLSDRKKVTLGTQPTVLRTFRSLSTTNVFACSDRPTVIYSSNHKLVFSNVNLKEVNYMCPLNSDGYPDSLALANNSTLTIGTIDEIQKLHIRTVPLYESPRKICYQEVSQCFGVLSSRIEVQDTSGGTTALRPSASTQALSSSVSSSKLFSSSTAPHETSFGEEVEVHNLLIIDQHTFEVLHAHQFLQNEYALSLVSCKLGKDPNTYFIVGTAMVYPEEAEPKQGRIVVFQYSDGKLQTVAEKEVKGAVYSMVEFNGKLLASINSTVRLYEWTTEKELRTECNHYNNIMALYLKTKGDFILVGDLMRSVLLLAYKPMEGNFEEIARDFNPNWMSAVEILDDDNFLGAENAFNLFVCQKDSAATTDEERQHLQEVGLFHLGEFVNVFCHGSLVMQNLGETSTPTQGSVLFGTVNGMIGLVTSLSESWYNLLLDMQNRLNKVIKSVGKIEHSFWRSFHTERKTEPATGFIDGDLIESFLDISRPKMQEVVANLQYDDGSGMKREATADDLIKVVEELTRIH
Procedure, shortened: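 Human DF15 cells co-expressing a GSPT1–ePL fusion were treated with compound in RPMI 1640/10% FBS for 20 h at 37 °C. GSPT1 level was read by enzyme-fragment-complementation luminescence after 60 min with detection reagent. The reference degrader at […] defined 75% response; DC50 and Dmax were reported.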

Cyclin E1 = Cyclin E1 (Homo sapiens, UniProt P24864+Q96SW2); test: Cyclin E1 Cellular Degradation Assay (MSD); parameters: endogenous in cells; host or cells: OVCAR3; details: for DC50 / Dmax: Cyclin E1 cellular degradation; for Dmax: maximum degradation; for Ratio of GSPT1 DC50/Cyclin E1 DC50: selectivity for degradation of Cyclin E1 over GSPT1
Sequence of Cyclin E1 (P24864 whole entry): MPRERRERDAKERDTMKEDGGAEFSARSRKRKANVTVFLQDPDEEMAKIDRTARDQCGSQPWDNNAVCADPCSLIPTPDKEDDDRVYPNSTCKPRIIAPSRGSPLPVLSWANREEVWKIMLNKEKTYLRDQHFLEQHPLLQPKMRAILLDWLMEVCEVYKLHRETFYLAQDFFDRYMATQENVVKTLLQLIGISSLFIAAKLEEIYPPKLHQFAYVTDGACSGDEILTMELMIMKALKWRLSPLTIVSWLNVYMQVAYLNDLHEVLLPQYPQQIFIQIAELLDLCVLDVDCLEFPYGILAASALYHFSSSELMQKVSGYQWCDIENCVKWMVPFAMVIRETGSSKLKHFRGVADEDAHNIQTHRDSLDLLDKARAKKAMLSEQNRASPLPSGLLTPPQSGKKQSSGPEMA
Sequence of Cyclin E1 (Q96SW2 whole entry): as the sequence (Q96SW2 whole entry, the tested form may be a part) above
Sequence of Cyclin E1 (Q16531 whole entry partner): as the sequence (Q16531 whole entry partner, the tested form may be a part) above
Procedure, shortened: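 OVCAR3 cells treated with compound for 24 h at 37 °C, lysed, and cyclin E1 measured by MSD sandwich immunoassay (rabbit capture, mouse detection anti-CCNE1). Reference degrader at […] defined 110% response; DC50 and Dmax derived from response.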

SMILES	IC50 (Phospho-Rb (Ser807/811)) [nM]	Emax (Phospho-Rb (Ser807/811)) [%]	DC50 (GSPT1) [µM]	Dmax (GSPT1) [%]	DC50 (Cyclin E1) [nM]	Dmax (Cyclin E1) [%]	Ratio of GSPT1 DC50/Cyclin E1 DC50 (Cyclin E1)
O=C1CCC(N2Cc3ccc(COC(=O)Nc4ccc(Oc5ccccc5Cl)cc4)c(OC4CCOCC4)c3C2=O)C(=O)N1 (centres unmarked) [Example 131, [2-(2,6-dioxopiperidin-3-yl)-4-(oxan-4-yloxy)-3-oxo-2,3-dihydro-1H-isoindol-5-yl]methyl N-[4-(2-chlorophenoxy)phenyl]carbamate]	28	129	> 14	0	31	102	>450
O=C1CCC(N2Cc3ccc(COC(=O)Nc4ccc(Oc5ccc(F)c(F)c5)cc4F)c(OC4CCOCC4)c3C2=O)C(=O)N1 (centres unmarked) [Example 132, [2-(2,6-dioxopiperidin-3-yl)-4-(oxan-4-yloxy)-3-oxo-2,3-dihydro-1H-isoindol-5-yl]methyl N-[4-(3,4-difluorophenoxy)-2-fluorophenyl]carbamate]	66	142	> 14	10	20	107	>693
O=C1CCC(N2Cc3ccc(COC(=O)Nc4ccc(Oc5ccc(F)cc5)cc4)c(OC4CCOCC4)c3C2=O)C(=O)N1 (centres unmarked) [Example 133, [2-(2,6-dioxopiperidin-3-yl)-4-(oxan-4-yloxy)-3-oxo-2,3-dihydro-1H-isoindol-5-yl]methyl N-[4-(4-fluorophenoxy)phenyl]carbamate]	42	145	> 14	16	25	106	>569
O=C1CCC(N2Cc3ccc(COC(=O)Nc4ccc(Oc5ccccc5)cc4)c(OC4CCOCC4)c3C2=O)C(=O)N1 (centres unmarked) [Example 134, [2-(2,6-dioxopiperidin-3-yl)-4-(oxan-4-yloxy)-3-oxo-2,3-dihydro-1H-isoindol-5-yl]methyl N-(4-phenoxyphenyl)carbamate]	14	144	> 14	0	13	107	>1,066
O=C1CCC(N2Cc3ccc(COC(=O)Nc4ccc(Oc5ccc(F)cc5)cc4F)c(OC4CCOCC4)c3C2=O)C(=O)N1 (centres unmarked) [Example 135, [2-(2,6-dioxopiperidin-3-yl)-4-(oxan-4-yloxy)-3-oxo-2,3-dihydro-1H-isoindol-5-yl]methyl N-[2-fluoro-4-(4-fluorophenoxy)phenyl]carbamate]	27	148	> 14	5	17	110	>847
O=C1CCC(N2Cc3ccc(COC(=O)Nc4ccc(Oc5ccc(F)cc5F)cc4F)c(OC4CCOCC4)c3C2=O)C(=O)N1 (centres unmarked) [Example 136, [2-(2,6-dioxopiperidin-3-yl)-4-(oxan-4-yloxy)-3-oxo-2,3-dihydro-1H-isoindol-5-yl]methyl N-[4-(2,4-difluorophenoxy)-2-fluorophenyl]carbamate]	24	144	> 14	11	38	110	>368
O=C1CCC(N2Cc3ccc(COC(=O)Nc4ccc(Oc5ccc(F)c(F)c5)cc4)c(OC4CCCCC4)c3C2=O)C(=O)N1 (centres unmarked) [Example 137, [4-(cyclohexyloxy)-2-(2,6-dioxopiperidin-3-yl)-3-oxo-2,3-dihydro-1H-isoindol-5-yl]methyl N-[4-(3,4-difluorophenoxy)phenyl]carbamate]	19	123	> 14	1	26	108	>547
CC(C)COc1c(COC(=O)Nc2ccc(Oc3ccc(F)c(F)c3)cc2)ccc2c1C(=O)N(C1CCC(=O)NC1=O)C2 (centres unmarked) [Example 138, [2-(2,6-dioxopiperidin-3-yl)-4-(2-methylpropoxy)-3-oxo-2,3-dihydro-1H-isoindol-5-yl]methyl N-[4-(3,4-difluorophenoxy)phenyl]carbamate]	45	120	> 14	9	173	108	>81
O=C1CCC(N2Cc3ccc(COC(=O)Nc4ccc(Oc5ccc(F)cc5F)cc4)c(OC4CCOCC4)c3C2=O)C(=O)N1 (centres unmarked) [Example 139, [2-(2,6-dioxopiperidin-3-yl)-4-(oxan-4-yloxy)-3-oxo-2,3-dihydro-1H-isoindol-5-yl]methyl N-[4-(2,4-difluorophenoxy)phenyl]carbamate]	27	170	> 14	8	67	105	>210
O=C1CCC(N2Cc3ccc(COC(=O)Nc4ccc(Oc5cc(F)cc(F)c5)cc4F)c(OC4CCOCC4)c3C2=O)C(=O)N1 (centres unmarked) [Example 140, [2-(2,6-dioxopiperidin-3-yl)-4-(oxan-4-yloxy)-3-oxo-2,3-dihydro-1H-isoindol-5-yl]methyl N-[4-(3,5-difluorophenoxy)-2-fluorophenyl]carbamate]	16	132	> 14	0	30	105	>474
O=C1CCC(N2Cc3ccc(COC(=O)Nc4ccc(Oc5ccc(F)c(F)c5)cc4)c(O[C@@H]4CCCOC4)c3C2=O)C(=O)N1 (stereo partly drawn) [Example 141, [2-(2,6-dioxopiperidin-3-yl)-4-[(3R)-oxan-3-yloxy]-3-oxo-2,3-dihydro-1H-isoindol-5-yl]methyl N-[4-(3,4-difluorophenoxy)phenyl]carbamate]	55	136	> 14	9	34	112	>418
O=C1CCC(N2Cc3ccc(COC(=O)Nc4ccc(Oc5ccccc5)cc4)c(O[C@@H]4CCCOC4)c3C2=O)C(=O)N1 (stereo partly drawn) [Example 142, [2-(2,6-dioxopiperidin-3-yl)-4-[(3R)-oxan-3-yloxy]-3-oxo-2,3-dihydro-1H-isoindol-5-yl]methyl N-(4-phenoxyphenyl)carbamate]	145	139	> 14	4	22	108	>635
O=C1CCC(N2Cc3ccc(COC(=O)Nc4ccc(Oc5cccc(F)c5)cc4)c(O[C@@H]4CCCOC4)c3C2=O)C(=O)N1 (stereo partly drawn) [Example 143, [2-(2,6-dioxopiperidin-3-yl)-4-[(3R)-oxan-3-yloxy]-3-oxo-2,3-dihydro-1H-isoindol-5-yl]methyl N-[4-(3-fluorophenoxy)phenyl]carbamate]	66	153	> 14	8	31	110	>445
O=C1CCC(N2Cc3ccc(COC(=O)Nc4ccc(Oc5ccc(F)cc5)cc4)c(O[C@@H]4CCCOC4)c3C2=O)C(=O)N1 (stereo partly drawn) [Example 144, [2-(2,6-dioxopiperidin-3-yl)-4-[(3R)-oxan-3-yloxy]-3-oxo-2,3-dihydro-1H-isoindol-5-yl]methyl N-[4-(4-fluorophenoxy)phenyl]carbamate]	23	145	> 14	4	106	103	>133
O=C1CCC(N2Cc3ccc(COC(=O)Nc4ccc(Oc5ccc(F)cc5F)cc4)c(O[C@@H]4CCCOC4)c3C2=O)C(=O)N1 (stereo partly drawn) [Example 145, [2-(2,6-dioxopiperidin-3-yl)-4-[(3R)-oxan-3-yloxy]-3-oxo-2,3-dihydro-1H-isoindol-5-yl]methyl N-[4-(2,4-difluorophenoxy)phenyl]carbamate]	37	145	> 14	9	57	111	>247
O=C1CCC(N2Cc3ccc(COC(=O)Nc4ccc(Oc5ccc(F)c(F)c5)cc4F)c(O[C@@H]4CCCOC4)c3C2=O)C(=O)N1 (stereo partly drawn) [Example 146, [2-(2,6-dioxopiperidin-3-yl)-4-[(3R)-oxan-3-yloxy]-3-oxo-2,3-dihydro-1H-isoindol-5-yl]methyl N-[4-(3,4-difluorophenoxy)-2-fluorophenyl]carbamate]	38	133	> 14	8	47	112	>296
O=C1CCC(N2Cc3ccc(COC(=O)Nc4ccc(Oc5ccc(F)cc5)cc4F)c(O[C@@H]4CCCOC4)c3C2=O)C(=O)N1 (stereo partly drawn) [Example 147, [2-(2,6-dioxopiperidin-3-yl)-4-[(3R)-oxan-3-yloxy]-3-oxo-2,3-dihydro-1H-isoindol-5-yl]methyl N-[2-fluoro-4-(4-fluorophenoxy)phenyl]carbamate]	43	137	> 14	2	12	110	>1,121
